Assay results: patent US7208517B1, “Endothelin antagonists” (Abbott Labortories, priority 1994, dated 2007)
Like-named read-outs stand apart in the source and are kept apart here.

Columns and labels:
ETA Receptor = target: T1, ETA Receptor (Rattus norvegicus, UniProt P26684); assay: [125I]ET-1 binding to membranes from MMQ cells (ETA receptor binding assay, Table 4); conditions: for inhibition at 1 µM: read-out: % Inhibition of ETA at 1 μM
T1 construct: endogenous in cells; host or cells: MMQ rat pituitary cells (membranes)
T1 sequence (P26684 21-426): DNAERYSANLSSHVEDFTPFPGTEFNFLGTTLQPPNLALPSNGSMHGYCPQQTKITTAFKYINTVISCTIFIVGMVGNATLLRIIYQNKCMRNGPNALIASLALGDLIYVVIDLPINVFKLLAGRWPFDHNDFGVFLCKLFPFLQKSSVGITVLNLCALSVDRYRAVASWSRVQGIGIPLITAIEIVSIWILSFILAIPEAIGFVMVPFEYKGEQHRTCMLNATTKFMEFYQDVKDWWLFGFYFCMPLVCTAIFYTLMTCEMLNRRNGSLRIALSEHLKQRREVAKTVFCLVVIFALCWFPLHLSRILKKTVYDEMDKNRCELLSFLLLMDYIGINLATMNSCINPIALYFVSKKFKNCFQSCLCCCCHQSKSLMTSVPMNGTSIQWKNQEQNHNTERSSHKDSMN

[1] = target: T2, ETA receptor in MMQ cells (rET-A) (Rattus norvegicus, UniProt P26684); assay: ETA/ETB selectivity: (125I)ET-1 competition binding, ETA assay in MMQ cell membranes (rET-A)
T2 construct: endogenous in cells; host or cells: MMQ rat pituitary cells (membranes)
T2 sequence (P26684 21-426): T1 sequence (P26684 21-426)
Procedure: (§1) The mixture was centrifuged at 1000×g for 10 min. The supernatant was collected and centrifuged at 60,000×g for 60 min. The precipitate was resuspended in 20 mM Tris, pH 7.4 containing protease inhibitor and centrifuged again. The final membrane pellet was resuspended in 20 mM Tris, pH 7.4 containing protease inhibitors and stored at −80° C. until used. Protein content was determined by the Bio-Rad dye-binding protein assay.
(§2) Binding assays were performed in 96-well microtiter plates pretreated with 0.1% BSA. […] After incubation, unbound ligands were separated from bound ligands by a vacuum filtration method using glass-fiber filter strips in PHD cell harvesters (Cambridge Technology, Inc., MA), washing the filter strips three times with saline (1 mL). Nonspecific binding was determined in the presence of 1 μM ET-1. IC50 values are calculated using an average of at least two separate determinations.

[2] = target: T3, ETB receptors of porcine cerebellar tissues (pET-B) (Sus scrofa, UniProt P35463); assay: ETA/ETB selectivity: (125I)ET-3 competition binding, ETB assay in porcine cerebellum membranes (pET-B)
T3 construct: porcine cerebellar tissues (known to contain ETB receptors); from tissue; host or cells: porcine cerebellum (membranes)
T3 sequence (P35463 27-443): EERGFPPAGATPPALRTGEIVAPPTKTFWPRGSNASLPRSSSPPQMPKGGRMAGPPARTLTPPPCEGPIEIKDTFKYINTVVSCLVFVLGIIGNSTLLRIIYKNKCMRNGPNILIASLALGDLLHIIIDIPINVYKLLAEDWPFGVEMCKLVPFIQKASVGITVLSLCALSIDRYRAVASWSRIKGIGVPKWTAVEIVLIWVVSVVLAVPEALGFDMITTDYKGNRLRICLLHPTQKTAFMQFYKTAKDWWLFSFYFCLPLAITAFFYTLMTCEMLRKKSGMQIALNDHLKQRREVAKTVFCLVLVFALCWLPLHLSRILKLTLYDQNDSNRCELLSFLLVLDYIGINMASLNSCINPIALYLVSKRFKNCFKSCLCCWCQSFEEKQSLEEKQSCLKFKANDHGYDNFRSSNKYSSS
Procedure: as §1, §2

human ETA receptor = target: T4, human ETA receptor (Homo sapiens, UniProt P25101); assay: ETA/ETB selectivity: (125I)ET-1 competition binding, CHO cells transfected with human ETA receptor (hET-A)
T4 construct: expressed in transfected cells; host or cells: CHO cells, permanently transfected
T4 sequence (P25101 21-427): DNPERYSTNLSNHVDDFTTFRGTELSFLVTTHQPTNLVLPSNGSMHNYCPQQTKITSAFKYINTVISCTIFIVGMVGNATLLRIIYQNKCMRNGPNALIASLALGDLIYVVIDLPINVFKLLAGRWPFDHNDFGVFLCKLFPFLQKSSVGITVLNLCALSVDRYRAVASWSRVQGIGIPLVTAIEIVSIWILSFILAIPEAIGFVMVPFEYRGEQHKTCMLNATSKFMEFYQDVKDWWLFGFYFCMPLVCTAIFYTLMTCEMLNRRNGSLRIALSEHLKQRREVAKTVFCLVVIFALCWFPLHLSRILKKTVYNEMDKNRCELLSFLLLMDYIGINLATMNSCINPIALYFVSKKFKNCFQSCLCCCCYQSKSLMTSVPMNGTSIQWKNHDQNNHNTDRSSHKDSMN
Procedure: as §1, §2

human ETB receptor = target: T5, human ETB receptor (Homo sapiens, UniProt P24530); assay: ETA/ETB selectivity: (125I)ET-3 competition binding, CHO cells transfected with human ETB receptor (hET-B); conditions: CHO cells transfected with human ETB receptor; 0.1 nM (125I)ET-3; read-out: hET-B IC50
T5 construct: expressed in transfected cells; host or cells: CHO cells, permanently transfected
T5 sequence (P24530 27-442): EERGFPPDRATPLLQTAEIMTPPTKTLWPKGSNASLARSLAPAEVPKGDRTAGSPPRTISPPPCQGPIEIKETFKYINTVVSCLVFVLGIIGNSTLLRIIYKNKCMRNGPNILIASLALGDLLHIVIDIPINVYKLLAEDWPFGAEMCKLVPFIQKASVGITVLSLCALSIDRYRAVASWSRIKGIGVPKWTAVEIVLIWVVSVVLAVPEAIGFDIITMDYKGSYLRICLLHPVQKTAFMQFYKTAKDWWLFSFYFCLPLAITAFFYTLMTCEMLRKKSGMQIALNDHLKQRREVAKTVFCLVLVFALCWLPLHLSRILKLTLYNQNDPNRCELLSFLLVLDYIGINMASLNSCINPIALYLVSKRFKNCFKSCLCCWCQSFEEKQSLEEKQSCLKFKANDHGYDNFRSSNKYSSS
Procedure: MMQ cells, porcine cerebellar tissues (known to contain ETB receptors) and chinese hamster ovary cells (CHO) permanently transfected with the human ETA or ETB receptor were homogenized in 25 ml of 10 mM Hepes (pH 7.4) containing 0.25 M sucrose and a protease inhibitor [50 mM EDTA, 0.1 mM PMSF, 5 μg/ml Pepstatin A, and 0.025% Bacitracin] using a micro ultrasonic cell disrupter. The mixture was centrifuged at 1000×g for 10 min. The supernatant was collected and centrifuged at 60,000×g for 60 min. The precipitate was resuspended in 20 mM Tris, pH 7.4 containing protease inhibitor and centrifuged again. The final membrane pellet was resuspended in 20 mM Tris, pH 7.4 containing protease inhibitors and stored at −80° C. until used. Protein content was determined by the Bio-Rad dye-binding protein assay.
Binding assays were performed in 96-well microtiter plates pretreated with 0.1% BSA. Membranes prepared from cells were diluted 100 fold in Buffer B (20 mM Tris, 100 mM NaCl, 10 mM MgCl2, pH 7.4, with 0.2% BSA, 0.1 mM PMSF, 5 μg/mL Pepstatin A, 0.025% bacitracin, and 50 mM EDTA) to a final concentration of 0.2 mg/mL of protein. In competition binding studies, membranes (0.02 mg) were incubated with 0.1 nM of (^125I)ET-1 (for ETA assay in MMQ or CHO cells transfected with human ETA receptor) or (^125I)ET-3 (for ETB assay in porcine cerebellum or CHO cells transfected with human ETB receptor) in Buffer B (final volume: 0.2 mL) in the presence of increasing concentrations of the test compound for 3 hours at 25° C. After incubation, unbound ligands were separated from bound ligands by a vacuum filtration method using glass-fiber filter strips in PHD cell harvesters (Cambridge Technology, Inc., MA), washing the filter strips three times with saline (1 mL). Nonspecific binding was determined in the presence of 1 μM ET-1. IC50 values are calculated using an average of at least two separate determinations.

[3] = test compound at 1 μM, 0.1 nM [125I]ET-1, MMQ cell membranes, 4 hours at 25° C.
[4] = MMQ cell membranes, 0.1 nM (125I)ET-1, read-out: rET-A IC50
[5] = CHO cells transfected with human ETA receptor, 0.1 nM (125I)ET-1, read-out: hET-A IC50
[6] = porcine cerebellum membranes, 0.1 nM (125I)ET-3, read-out: pET-B IC50

Row | Compound | inhibition at 1 µM (ETA Receptor; [3]) [%] | IC50 [1, 4] [nM] | IC50 [2, 6] [nM] | also measured
1 | CCc1ccccc1C(NC(=O)CN1CC(c2ccc3c(c2)OCO3)C(C(=O)O)C1c1ccc(OCCOC(C)C)cc1)c1ccccc1C (stereo not drawn) [Example 559, trans,trans-2-[4-(2-Isopropopoxyethoxy)phenyl]-4-(1,3-benzodioxol-5-yl)-1-(N-((1-(o-tolyl)-1-(o-ethylphenyl)-methyl)amino)carbonylmethyl)-pyrrolidine-3-carboxylic acid] | – | – | – | % Inhibition of ETA at 1 μM (ETA Receptor; [3]): 5.8%
2 | CC(C)OCCOc1ccc(C2C(C(=O)O)C(c3ccc4c(c3)OCO4)CN2CC(=O)NN(c2ccccc2)C(C)(C)C)cc1 (stereo not drawn) [Example 560, trans,trans-2-(4-(2-(2-Propoxy)ethoxy)phenyl)-4-(1,3-benzodioxol-5-yl)-1-N-phenyl-N-t-butylhydrazino carbonylmethyl)-pyrrolidine-3-carboxylic acid] | – | – | – | % Inhibition of ETA at 1 μM (ETA Receptor; [3]): 0%
3 | COCCOc1ccc(C2C(C(=O)O)C(c3ccc4c(c3)OCO4)CN2CC(=O)NN(c2ccccc2)C(C)(C)C)cc1 (stereo not drawn) [Example 561, trans,trans-2-(4-(2-Methoxyethoxy)phenyl)-4-(1,3-benzodioxol-5-yl)-1-(N-phenyl-N-t-butylhydrazinocarbonylmethyl)-pyrrolidine-3-carboxylic acid] | – | – | – | % Inhibition of ETA at 1 μM (ETA Receptor; [3]): 0%
4 | CCCCN(CCCC)C(=O)CN1CC(c2ccc3c(c2)OCO3)C(C(=O)O)C1CC(C)CCC (centres unmarked) [compound 502] | – | – | – | inhibition at 1 µM (ETA Receptor): 95.7%; IC50 [1]: 3 nM; IC50 [2]: 71000 nM
5 | CCCCN(CCCC)C(=O)CN1CC(c2ccc3c(c2)OCO3)C(C(=O)O)C1CCN1CCCC1=O (centres unmarked) [compound 512] | 98.9 | – | > 80000 | IC50 [1]: 0.42 nM; IC50 (human ETA receptor; [5]): 0.58 nM; IC50 (human ETB receptor): ≥ 60000 nM
6 | CCCCN(CCCC)C(=O)CN1CC(c2cc(OC)c3c(c2)OCO3)C(C(=O)O)C1CC(C)(C)CCC (centres unmarked) [compound 514] | 100 | 1 | – | IC50 [2]: 26000 nM
7 | CCCCN(CCCC)C(=O)CN1CC(c2ccc3c(c2)OCO3)C(C(=O)O)C1CCc1ccccn1 (centres unmarked) [compound 519] | – | – | – | inhibition at 1 µM (ETA Receptor): 99.1%; IC50 [1]: 0.38 nM; IC50 [2]: 14000 nM; IC50 (human ETA receptor; [5]): 0.23 nM; IC50 (human ETB receptor): 19000 nM
8 | CCCCN(CCCCN)C(=O)CN1CC(c2ccc3c(c2)OCO3)C(C(=O)O)C1c1ccc(OC)cc1 (centres unmarked) [compound 529] | 98.1 | 3.6 | 6300 | –
9 | CCCCN(CCCC)C(=O)CN1C[C@H](c2cc(OC)c3c(c2)OCO3)[C@@H](C(=O)O)[C@@H]1CC(C)(C)CCC [compound 536] | 100 | 0.52 | – | IC50 [2]: 17000 nM
10 | CC=CC(C)(C)CC1C(C(=O)O)C(c2ccc3c(c2)OCO3)CN1CC(=O)N(CCCC)CCCC (centres unmarked) [compound 552] | – | – | – | inhibition at 1 µM ([1]; 1 μM test compound, MMQ cell membranes): 97.3%; IC50 (human ETA receptor): 1 nM; IC50 (human ETB receptor): > 96000 nM
11 | (2R,3R,4S)-(+)-2-(4-Methoxyphenyl)-4-(1,3-benzodioxol-5-yl)-1-(tert-butyloxycarbonyl-aminocarbonylmethyl)-pyrrolidine-3-carboxylic acid [Example 95D] | – | – | – | % Inhibition of ETA at 1 μM (ETA Receptor; [3]): 82.1%

Second part, led by results:

Row | inhibition at 1 µM (ETA Receptor; [3]) [%] | IC50 [1, 4] [nM] | IC50 [2, 6] [nM] | Compound | also measured
12 | 95.9 | – | – | COc1ccc(C2C(C(=O)O)C(c3ccc4c(c3)OCO4)CN2CC(=O)Nc2ccccc2)cc1 (centres unmarked) [Example 495] | –
13 | 99.2 | 0.81 | – | CCCC(CCC)N(C(=O)CN1C[C@H](c2ccc3c(c2)OCO3)[C@@H](C(=O)O)[C@@H]1CC(C)(C)CCC)c1ccc(F)c(C)c1 [compound 511] | IC50 (human ETA receptor; [5]): 0.6 nM; IC50 (human ETB receptor): 15000 nM
14 | 97.4 | 0.2 | 28000 | CCCCN(CCCC)C(=O)CN1C[C@H](c2ccc3c(c2)OCO3)[C@@H](C(=O)O)[C@@H]1CCN1CCCC1=O [compound 520] | –
15 | 100 | 0.67 | 37000 | CCCC(CCC)N(C(=O)CN1C[C@H](c2ccc3c(c2)OCO3)[C@@H](C(=O)O)[C@@H]1CCN1CCCC1=O)c1ccc(F)c(C)c1 [compound 521] | –
16 | 100 | 42 | – | CCCCN(CCCN)C(=O)CN1CC(c2ccc3c(c2)OCO3)C(C(=O)O)C1c1ccc(OC)cc1 (centres unmarked) [compound 526] | IC50 (human ETA receptor; [5]): 17 nM; IC50 (human ETB receptor): 7400 nM
17 | 96.6 | 7.9 | 10000 | CCCCN(CCCN(C)C)C(=O)CN1CC(c2ccc3c(c2)OCO3)C(C(=O)O)C1c1ccc(OC)cc1 (centres unmarked) [compound 527] | –
18 | 98.3 | 11 | 43000 | CCCCN(CCC[N+](C)(C)C)C(=O)CN1CC(c2ccc3c(c2)OCO3)C(C(=O)O)C1c1ccc(OC)cc1 (centres unmarked) [compound 528] | –
